ChEMBL document CHEMBL5725202, “Substituted bicyclic compounds” (2016)

Biological target: Sphingosine 1-phosphate receptor 1 (Homo sapiens, UniProt P21453)
Assay: Binding Assay: Membranes were prepared from CHO cells expressing human S1P1. Cells pellets (1x10^9 cells/pellet) were suspended in buffer containing 20 mM HEPES (4-(2-hydroxyethyl)-1-piperazineethanesulfonic acid), pH 7.5, 50 mM NaCl, 2 mM EDTA (Ethylenediaminetetraacetic acid) and Protease Inhibitor cocktail (Roche), and disrupted on ice using the Polytron homogenizer. The homogenate was centrifuged at 20,000 rpm (48,000 g) and the supernatant was discarded. The membrane pellets were resuspended in buffer containing 50 mM HEPES, pH 7.5, 100 mM NaCl, 1 mM MgCl2, 2 mM EDTA and stored in aliquots at -80° C. after protein concentration determination.Membranes (2 ug/well) and 0.03 nM final concentration of 33P-S1P ligand (1 mCi/ml, Perkin elmer or American Radiolabeled Chemicals) diluted in assay buffer (50 mM HEPES, pH7.4, 5 mM MgCl2, 1 mM CaCl2, 0.5% fatty acid free BSA (bovine serum albumin), 1 mM NaF) were added to the compound plates (384 Falcon v-bottom plate (0.5 ul/well in a 11 point, 3-fold dilution). Binding was performed for 45 minutes at room temperature, terminated by collecting the membranes onto 384-well Millipore FB filter plates, and radioactivity was measured by TOPCOUNT. The competition data of the test compounds over a range of concentrations was plotted as percentage inhibition of radioligand specific binding.

Sphingosine 1-phosphate receptor 1, sequence (P21453 whole entry): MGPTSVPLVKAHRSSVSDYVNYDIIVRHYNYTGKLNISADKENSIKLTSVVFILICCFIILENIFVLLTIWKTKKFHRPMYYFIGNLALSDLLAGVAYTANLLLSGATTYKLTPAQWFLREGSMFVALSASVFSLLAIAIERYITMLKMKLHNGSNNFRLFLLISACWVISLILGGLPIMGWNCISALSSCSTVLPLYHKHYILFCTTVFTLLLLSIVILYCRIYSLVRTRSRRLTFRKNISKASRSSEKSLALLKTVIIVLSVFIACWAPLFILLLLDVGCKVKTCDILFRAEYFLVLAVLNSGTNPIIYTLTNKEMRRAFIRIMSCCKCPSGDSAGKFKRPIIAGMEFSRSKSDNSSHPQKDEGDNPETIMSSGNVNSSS

IC50: < 0.01 µM
SMILES: CCCCCC[C@H]1Cc2ccc([C@@H]3CC[C@](N)(COP(=O)(O)O)C3)cc2CO1
